These results are taken from ChEMBL document CHEMBL1139218, “Cytotoxic benzo[j]fluoranthene metabolites from Hypoxylon truncatum IFB-18, an endophyte of Artemisia annua” (J Nat Prod, 2007).

This test in a line: Cytotoxicity against SW1116 cells by MTT colometric method. Type of test: functional, cell-based. The note with it: Homo sapiens, SW 1116. (Formazan colour is commonly taken as a measure of viable cells.)

One may read the IC50 as the concentration at which inhibition is half-maximal. Lower therefore signals higher potency.

`O=C1C[C@H]2[C@@H]3CCC(=O)c4c(O)ccc(c43)[C@]2(O)c2cccc(O)c21` [DALDINONE C] registered an IC50 of 49.5 µM.

`CO[C@H]1C[C@H]2[C@@H]3CCC(=O)c4c(O)ccc(c43)[C@]2(O)c2cccc(O)c21` [DALDINONE D] showed a concentration for half-maximal inhibition (IC50) of 41 µM.

For the compound `O=c1[nH]cc(F)c(=O)[nH]1` [FLUOROURACIL], the IC50 amounted to 37 µM.
